# Entries after “also recorded” stand apart in the source; their conditions may differ. Where two headings read alike, the source gives them in different places.
# Experiments:
# [1] = test system: 3D-cultured intestinal organoids (ENR or ENR+CD); test: Lysozyme secretion assay (3D culture), normalized to ATP; assay type: cell-based, mouse; details: 6-day ENR+CD differentiation; for Paneth cell differentiation (functional LYZ secretion), in combination with KPT-330: with KPT-330 (160 nM)
# Method: Lysozyme assay (3D culture). ISC-enriched organoids cultured in 3D Matrigel with ENRCV media were passaged to 48-well plate in 3D Matrigel with ENRCV. At day zero, media were replaced to ENR or ENRCD with or without indicated compounds, and media were replaced every other day. At day six, cells were washed twice with basal media and treated with carbamylcholine chloride (Sigma, C4382) for 3 hours. Media were collected and lysozyme activity was measured by EnzChek Lysozyme Assay Kit (ThermoFisher, E22013).
# Lysozyme secretion assay. ISC-enriched organoids in 3D Matrigel culture were passaged to a 48- or 96-well plate and cultured with ENR or ENR+CD media containing DMSO or each drug for 6 days. DMSO- or drug-containing media were changed every other day. On day 6, cells were washed with basal media twice and treated with basal media with or without 10 μM carbamoylcholine chloride for 3 h in a CO2 incubator at 37° C. A part of the conditioned media was collected and used for lysozyme assay (Thermo, E-22013) following the manufacturer's instruction. The fluorescence was measured using excitation/emission of 485/530 nm. CellTiter-Glo 3D Reagent (Promega, G9681) was added afterward, and the cell culture plate was incubated on an orbital shaker at RT for 30 min to induce cell lysis and to stabilize the luminescent signal. The solution was replaced to a 96-well white microplate, and luminescent signals were measured by a microplate reader (infinite M200, Tecan). The standard curve was prepared by diluting recombinant ATP (Promega, P1132). For both assays, a polynomial cubic curve was fitted to a set of standard data, and each sample value was calculated on the Microsoft Excel.
# ENR+CD organoids [2] = details: for Z.CTG: standard z score
# [3] = test system: ENR+CD organoids (ISC to Paneth cell differentiation); test: Primary screen: basal (non-stimulated) lysozyme secretion LYZ.NS, 2.5-D 384-well ENR+CD organoid differentiation; assay type: cell-based, mouse; details: primary screen; for Z.LYZ.NS: standard z score; for Dose.FC.LYZ.NS: FC vs plate median
# Text: (§1) High-throughput screening.
# [4] = test system: ENR+CD organoids (ISC to Paneth cell differentiation); test: Primary screen: CCh-stimulated lysozyme secretion LYZ.S, 2.5-D 384-well ENR+CD organoid differentiation; assay type: cell-based, mouse; details: primary screen, FC vs plate median
# Text: as §1
# [5] = test system: ENR+CD organoids (ISC to Paneth cell differentiation); test: Secondary (validation) screen: LYZ.NS basal lysozyme secretion, 2.5-D 384-well ENR+CD organoids; assay type: cell-based, mouse; details: 6-day ENR+CD, vs ENR+CD+DMSO
# [6] = test system: ENR+CD organoids (ISC to Paneth cell differentiation); test: Secondary (validation) screen: LYZ.S CCh-stimulated lysozyme secretion, 2.5-D 384-well ENR+CD organoids; assay type: cell-based, mouse; details: 6-day ENR+CD, vs ENR+CD+DMSO
# ENR+CD organoids [7] = test: Primary screen: ATP (CellTiter-Glo 3D, CTG) cell number/viability, 2.5-D 384-well ENR+CD organoids; details: primary screen; for Z.CTG: standard z score; for Dose.FC.CTG: FC vs plate median;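 for all read-outs here: compounds given at plating and again on day 3 over a 6-day differentiation from ENR+CV stem-cell-enriched precursors, ATP measured on day 6, plate median as control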
# ENR+CD organoids [8] = test: Secondary (validation) screen: ATP (CTG) assay, 2.5-D 384-well ENR+CD organoids; assay type: cell-based, mouse; details: 6-day ENR+CD, vs ENR+CD+DMSO
structure (smiles),measurement,setting,value
O=C(c1ccc(F)c(F)c1Nc1ccc(I)cc1F)N1CC(O)([C@@H]2CCCCN2)C1 [cobimetinib],"Paneth cell differentiation (functional LYZ secretion), compound alone",[1],did not significantly alter Paneth cell differentiation
same,"Paneth cell differentiation (functional LYZ secretion), in combination with KPT-330",[1],differentiation was enhanced; also recorded: significantly enhance Paneth cell differentiation
Cc1ccc(C(=O)Cn2c3c(sc2=N)CCCC3)cc1 [pifithrin-α],"Paneth cell differentiation (functional LYZ secretion), compound alone",[1],neither P53 inhibitor altered Paneth cell differentiation
same,"Paneth cell differentiation (functional LYZ secretion), in combination with KPT-330",[1],neither P53 inhibitor altered Paneth cell differentiation
C[C@@H]1O[C@@H](O[C@H]2C[C@@H](O)[C@]3(CO)[C@H]4[C@H](O)C[C@]5(C)[C@@H](C6=CC(=O)OC6)CC[C@]5(O)[C@@H]4CC[C@]3(O)C2)[C@H](O)[C@H](O)[C@H]1O [Ouabain],Dose.FC.CTG,ENR+CD organoids [2]; 10 µM,−0.288 log2 fold change
same,Z.CTG,"ENR+CD organoids [2]; primary screen, dose 0.08 uM",0.023
same,Z.CTG,"ENR+CD organoids [2]; primary screen, dose 0.40 uM",0.290
same,Z.CTG,"ENR+CD organoids [2]; primary screen, dose 2.00 uM",0.190
same,Z.CTG,"ENR+CD organoids [2]; primary screen, dose 10.00 uM",−0.688
same,Dose.FC.CTG,"ENR+CD organoids [2]; primary screen, dose 0.08 uM, FC vs plate median",0.010 log2 fold change
same,Dose.FC.CTG,"ENR+CD organoids [2]; primary screen, dose 0.40 uM, FC vs plate median",0.122 log2 fold change
same,Dose.FC.CTG,"ENR+CD organoids [2]; primary screen, dose 2.00 uM, FC vs plate median",0.080 log2 fold change
same,Z.LYZ.NS,[3]; dose 0.08 uM,−0.025
same,Z.LYZ.NS,[3]; dose 0.40 uM,0.315
same,Z.LYZ.NS,[3]; dose 2.00 uM,0.092
same,Z.LYZ.NS,[3]; dose 10.00 uM,1.433
same,Dose.FC.LYZ.NS,[3]; dose 0.08 uM,−0.003 log2 fold change
same,Dose.FC.LYZ.NS,[3]; dose 0.40 uM,0.036 log2 fold change
same,Dose.FC.LYZ.NS,[3]; dose 2.00 uM,0.011 log2 fold change
same,Dose.FC.LYZ.NS,[3]; dose 10.00 uM,0.165 log2 fold change
same,Dose.FC.LYZ.S,[4]; dose 0.08 uM,0.040 log2 fold change
same,Dose.FC.LYZ.S,[4]; dose 0.40 uM,0.035 log2 fold change
same,Dose.FC.LYZ.S,[4]; dose 2.00 uM,0.003 log2 fold change
same,Dose.FC.LYZ.S,[4]; dose 10.00 uM,0.050 log2 fold change
CCc1cncnc1N1CCN(Cc2nc3ccc(C(F)(F)F)cc3[nH]2)CC1 [PF-4708671],Dose.FC.LYZ.NS,[5]; 0.50 uM,0.005 log2 fold change
same,Z.LYZ.NS,[5]; 0.50 uM,0.039
same,repSSMD.LYZ.NS,[5]; 0.50 uM,0.058
same,Dose.FC.LYZ.NS,[5]; 1.00 uM,−0.200 log2 fold change
same,Z.LYZ.NS,[5]; 1.00 uM,−1.600
same,repSSMD.LYZ.NS,[5]; 1.00 uM,−1.909
same,Dose.FC.LYZ.NS,[5]; 2.00 uM,−0.221 log2 fold change
same,Z.LYZ.NS,[5]; 2.00 uM,−1.764
same,repSSMD.LYZ.NS,[5]; 2.00 uM,−2.529
same,Dose.FC.LYZ.NS,[5]; 4.00 uM,0.015 log2 fold change
same,Z.LYZ.NS,[5]; 4.00 uM,0.120
same,repSSMD.LYZ.NS,[5]; 4.00 uM,0.171
same,Dose.FC.LYZ.S,[6]; 0.50 uM,−0.040 log2 fold change
same,Z.LYZ.S,[6]; 0.50 uM,−0.305
same,repSSMD.LYZ.S,[6]; 0.50 uM,−0.496
same,Dose.FC.LYZ.S,[6]; 1.00 uM,−0.245 log2 fold change
same,Z.LYZ.S,[6]; 1.00 uM,−1.879
same,repSSMD.LYZ.S,[6]; 1.00 uM,−2.451
same,Dose.FC.LYZ.S,[6]; 2.00 uM,−0.272 log2 fold change
same,Z.LYZ.S,[6]; 2.00 uM,−2.088
same,repSSMD.LYZ.S,[6]; 2.00 uM,−3.604
same,Dose.FC.LYZ.S,[6]; 4.00 uM,−0.042 log2 fold change
same,Z.LYZ.S,[6]; 4.00 uM,−0.320
same,repSSMD.LYZ.S,[6]; 4.00 uM,−0.503
same,Z.LYZ.NS,[3]; dose 0.08 uM,0.654
same,Z.LYZ.NS,[3]; dose 0.40 uM,1.059
same,Z.LYZ.NS,[3]; dose 2.00 uM,1.721
same,Z.LYZ.NS,[3]; dose 10.00 uM,0.297
same,Dose.FC.LYZ.NS,[3]; dose 0.08 uM,0.075 log2 fold change
same,Dose.FC.LYZ.NS,[3]; dose 0.40 uM,0.122 log2 fold change
same,Dose.FC.LYZ.NS,[3]; dose 2.00 uM,0.198 log2 fold change
same,Dose.FC.LYZ.NS,[3]; dose 10.00 uM,0.034 log2 fold change
same,Z.CTG,ENR+CD organoids [7]; dose 0.08 uM,0.623
same,Z.CTG,ENR+CD organoids [7]; dose 0.40 uM,0.640
same,Z.CTG,ENR+CD organoids [7]; dose 2.00 uM,0.721
same,Z.CTG,ENR+CD organoids [7]; dose 10.00 uM,−0.766
same,Dose.FC.CTG,ENR+CD organoids [7]; dose 0.08 uM,0.261 log2 fold change
same,Dose.FC.CTG,ENR+CD organoids [7]; dose 0.40 uM,0.268 log2 fold change
same,Dose.FC.CTG,ENR+CD organoids [7]; dose 2.00 uM,0.302 log2 fold change
same,Dose.FC.CTG,ENR+CD organoids [7]; dose 10.00 uM,−0.321 log2 fold change
same,Dose.FC.CTG,ENR+CD organoids [8]; 0.50 uM,−0.049 log2 fold change
same,Z.CTG,ENR+CD organoids [8]; 0.50 uM,−0.443
same,repSSMD.CTG,ENR+CD organoids [8]; 0.50 uM,−0.324
same,Dose.FC.CTG,ENR+CD organoids [8]; 1.00 uM,−0.039 log2 fold change
same,Z.CTG,ENR+CD organoids [8]; 1.00 uM,−0.354
same,repSSMD.CTG,ENR+CD organoids [8]; 1.00 uM,−0.284
same,Dose.FC.CTG,ENR+CD organoids [8]; 2.00 uM,−0.076 log2 fold change
same,Z.CTG,ENR+CD organoids [8]; 2.00 uM,−0.684
same,repSSMD.CTG,ENR+CD organoids [8]; 2.00 uM,−0.558
same,Dose.FC.CTG,ENR+CD organoids [8]; 4.00 uM,0.067 log2 fold change
same,Z.CTG,ENR+CD organoids [8]; 4.00 uM,0.601
same,repSSMD.CTG,ENR+CD organoids [8]; 4.00 uM,0.414
same,Dose.FC.LYZ.S,[4]; dose 0.08 uM,0.136 log2 fold change
same,Dose.FC.LYZ.S,[4]; dose 0.40 uM,0.172 log2 fold change
same,Dose.FC.LYZ.S,[4]; dose 2.00 uM,0.209 log2 fold change
same,Dose.FC.LYZ.S,[4]; dose 10.00 uM,−0.024 log2 fold change
CC1=C(/C=C/C(=C/C=C/C(C)=C/C(=O)O)c2ccc(C)cc2)C(C)(C)CCC1 [SR11302],"Paneth cell differentiation (functional LYZ secretion), compound alone",[1],also decreases functional LYZ secretion
same,"Paneth cell differentiation (functional LYZ secretion), in combination with KPT-330",[1],significantly decreases functional LYZ secretion

# Reference: patent US20220323406A1, “METHODS AND COMPOSITIONS FOR DIFFERENTIATING STEM CELLS” (Massachusetts Institute of Technology, priority 2019, published 2022)
